Laboratory results from US20050091702A1, “Expression of polypeptides in rod outer segment membranes” (priority 2001, published 2005).

How the values were obtained:
[1] = target: T1, 5HT1AR-GFP-1D4 fusion protein (Homo sapiens, UniProt P08908); experiment: Saturation radioligand binding to transgenic tadpole membranes expressing 5HT1AR-GFP-1D4
T1 construct: expressed in transfected cells; host or cells: transgenic Xenopus laevis tadpoles (rod cells; homogenized membranes), transgene pXOP-5HTR-GFP-1D4
T1 sequence (P08908 with tags, fused parts or gaps): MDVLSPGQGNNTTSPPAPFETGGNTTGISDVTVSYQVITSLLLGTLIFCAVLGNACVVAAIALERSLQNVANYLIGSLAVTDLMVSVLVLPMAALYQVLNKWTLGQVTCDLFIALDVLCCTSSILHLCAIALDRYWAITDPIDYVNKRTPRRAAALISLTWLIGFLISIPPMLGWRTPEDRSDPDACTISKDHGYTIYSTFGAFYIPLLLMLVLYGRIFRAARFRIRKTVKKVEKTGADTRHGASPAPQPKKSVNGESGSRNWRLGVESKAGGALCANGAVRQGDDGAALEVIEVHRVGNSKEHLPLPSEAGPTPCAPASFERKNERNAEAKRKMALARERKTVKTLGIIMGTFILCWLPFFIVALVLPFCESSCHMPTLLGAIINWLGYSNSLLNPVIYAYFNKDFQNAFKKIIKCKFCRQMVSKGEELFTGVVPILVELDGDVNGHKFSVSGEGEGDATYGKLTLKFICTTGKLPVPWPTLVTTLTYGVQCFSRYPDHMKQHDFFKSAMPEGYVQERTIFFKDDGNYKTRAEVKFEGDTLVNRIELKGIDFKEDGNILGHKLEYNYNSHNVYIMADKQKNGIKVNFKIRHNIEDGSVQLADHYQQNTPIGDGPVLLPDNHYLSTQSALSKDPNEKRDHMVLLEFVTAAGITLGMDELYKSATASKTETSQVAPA
Procedure: (§1) Radioligand binding assay were performed using transgenic tadpoles (stage 48 or older) or CHO cells expressing 5HT1A receptors homogenized in binding buffer (50 mM Tris-HCl, pH 7.4, 2 mM MgCl2, 1 mM EDTA and proteinase inhibitor cocktail). The binding assay was performed in 96-well plate with [methyl-^3H]-MPPE as a radioligand. For saturation binding analyses, the membranes (20 μg/well) were incubated with 0.05% saponin in a final volume of 50 μl at room temperature for 10 min, and then incubated with 50 μl of [methyl-^3H]-MPPE (0-50 nM) for another 90 min. Nonspecific binding was determined in the presence of 10 μM serotonin. Assays were terminated by rapid filtration through GF/C filter plate with 4 times washes with washing buffer (20 mM Trics-HCl, pH 7.4). The radioactivity was measured by a TopCount (PerkinElmer). Assays were performed in duplicate.
(§2) Binding assays were performed to confirm that the 5HT1A receptor was expressed as a functional 5HT1AR-GPF-1D4 fusion protein in rod cell ROS of Xenopus tadpoles. Binding affinity was determined by measuring the binding affinity of [methyl-^3H]-MPPF, a radiolabeled selective ligand to the 5HT1A receptor, to the expressed fusion protein. Because the 5HT1A receptor expressed in ROS disk membranes is oriented with the extracellular side facing the interior of these disks and shielded from the solution, the detergent saponin was used to open up pores in these disk membranes and allow access to the ligands. Saponin at a concentration of 0.05% or more could effectively increase specific binding of [methyl-^3H]-MPPE to 5HT1AR transgenic tadpole membranes, but not to control tadpole membranes. […] Based on these observations, 0.05% saponin was included in all ligand binding assays.
(§3) Saturation binding assays were also performed to measure the binding affinity and compare it to 5HT1A receptor expressed in standard mammalian CHO cells. […] The low nanomolar affinity and extent of specific binding further corroborates that the 5HT1A receptor is properly folded in transgenic tadpoles. […]

5HT1A receptor [2] = target: T2, 5HT1A receptor (Homo sapiens, UniProt P08908); experiment: Saturation radioligand binding to membranes from CHO cells expressing the 5HT1A receptor; conditions: membrane samples from CHO cells expressing the 5HT1A receptor, read-out: binding affinity KD
T2 construct: expressed in transfected cells; host or cells: CHO cells (transient expression)
T2 sequence (P08908 1-422): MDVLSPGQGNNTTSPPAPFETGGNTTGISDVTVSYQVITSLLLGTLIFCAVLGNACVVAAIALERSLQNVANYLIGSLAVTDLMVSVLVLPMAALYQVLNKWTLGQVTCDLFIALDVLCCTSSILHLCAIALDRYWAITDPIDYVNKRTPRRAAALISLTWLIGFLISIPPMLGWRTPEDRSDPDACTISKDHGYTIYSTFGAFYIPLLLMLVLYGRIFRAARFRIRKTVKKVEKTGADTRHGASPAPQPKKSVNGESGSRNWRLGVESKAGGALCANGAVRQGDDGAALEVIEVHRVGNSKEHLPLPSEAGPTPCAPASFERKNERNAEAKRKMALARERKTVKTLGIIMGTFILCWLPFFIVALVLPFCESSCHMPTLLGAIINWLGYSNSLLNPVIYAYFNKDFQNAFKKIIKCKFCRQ
Procedure: as §1
Saturation binding assays were also performed to measure the binding affinity and compare it to 5HT1A receptor expressed in standard mammalian CHO cells. […] The low nanomolar affinity and extent of specific binding further corroborates that the 5HT1A receptor is properly folded in transgenic tadpoles. […] For example, the effect on binding affinity may be due to different ligand kon or koff kinetic parameters, or different partition coefficients to the different lipids present in these membranes.

[3] = tested on: 5HT1AR-GFP-1D4 fusion protein; experiment: Saturation radioligand binding to transgenic tadpole membranes expressing 5HT1AR-GFP-1D4; parameters: species or system human; conditions: tadpole KD versus CHO KD
Procedure: as §1, §2, §3

CHO membranes = experiment: Hydroxylamine effect on [35S]GTPγS binding to CHO membranes; assay type: biochemical; conditions: 10 mM hydroxylamine
Procedure: (§4) A receptor binding assay was performed to determine retention of functional receptor using [^35S]GTPγS labeled receptor ligand. Transgenic tadpoles (stage 48 or older) or CHO cells expressing 5HT1A receptors were homogenized in binding buffer (20 mM HEPES, pH 7.4, 10 mM MgCl2, 1 mM EDTA, 100 mM NaCl). The binding assay was performed in 96-well Scintiplate (PerkinElmer). To reduce [^35S]-GTPγS binding to rhodopsin-activated transducin in retina membrane, the membrane from tadpoles was preincubated with 10 mM hydroxylamine in binding buffer at room temperature for 60 min. The membranes (25 μg/well) were incubated with indicated ligands for 30 min in a total volume of 150 μl binding buffer containing 10 μM GDP, 0.5% BSA, 1 mM DTT), then 50 μl of […] [^35S]-GTPγS was added to each well to make a final concentration of 200 pM. The binding assays were carried out at room temperature for 60 min under gentle shaking. Final concentration of hydroxylamine in binding assay should be no more than 1 mM, Nonspecific binding was determined in the presence of 10 μM unlabelled GTPγS. Assays were terminated by centrifugation at 4000 g for 15 min and removal of supernatant. The radioactivity was measured by a TopCounter (PerkinElmer). Assays were performed in triplicate. […]

[4] = target: T3, rhodopsin-transducin interaction (Xenopus laevis, UniProt P29403); experiment: Hydroxylamine inactivation of rhodopsin-mediated basal [35S]GTPγS binding in tadpole ROS membranes; assay type: biochemical; conditions: 10 mM hydroxylamine, room temperature
T3 construct: from tissue; host or cells: Xenopus laevis tadpole (retina/ROS) membranes
T3 sequence (P29403 1-354): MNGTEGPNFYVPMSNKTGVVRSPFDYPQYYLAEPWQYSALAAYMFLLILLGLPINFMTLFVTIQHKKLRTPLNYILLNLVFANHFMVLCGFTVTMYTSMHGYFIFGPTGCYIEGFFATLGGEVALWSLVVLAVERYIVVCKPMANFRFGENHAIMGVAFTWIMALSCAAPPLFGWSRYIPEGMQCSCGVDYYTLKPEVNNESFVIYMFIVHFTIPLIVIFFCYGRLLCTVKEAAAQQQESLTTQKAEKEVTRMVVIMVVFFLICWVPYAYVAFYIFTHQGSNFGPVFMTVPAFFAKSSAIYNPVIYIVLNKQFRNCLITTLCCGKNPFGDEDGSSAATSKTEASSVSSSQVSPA
Procedure: as §4

5HT1A receptor [5] = target: T2, 5HT1A receptor; experiment: [35S]GTPγS binding to CHO membranes transiently expressing 5HT1A; assay type: biochemical; conditions: CHO cells expressing 5HT1A
Procedure: as §4

5HT1A receptor [6] = target: T4, 5HT1A receptor (Homo sapiens, UniProt P08908); experiment: [35S]GTPγS binding to transgenic tadpole membranes expressing 5HT1A; assay type: biochemical
T4 construct: expressed in transfected cells; host or cells: transgenic Xenopus laevis tadpoles (rod cells; homogenized membranes), transgene pXOP-5HTR-GFP-1D4
Procedure: as §4
T4 sequence (P08908 with tags, fused parts or gaps): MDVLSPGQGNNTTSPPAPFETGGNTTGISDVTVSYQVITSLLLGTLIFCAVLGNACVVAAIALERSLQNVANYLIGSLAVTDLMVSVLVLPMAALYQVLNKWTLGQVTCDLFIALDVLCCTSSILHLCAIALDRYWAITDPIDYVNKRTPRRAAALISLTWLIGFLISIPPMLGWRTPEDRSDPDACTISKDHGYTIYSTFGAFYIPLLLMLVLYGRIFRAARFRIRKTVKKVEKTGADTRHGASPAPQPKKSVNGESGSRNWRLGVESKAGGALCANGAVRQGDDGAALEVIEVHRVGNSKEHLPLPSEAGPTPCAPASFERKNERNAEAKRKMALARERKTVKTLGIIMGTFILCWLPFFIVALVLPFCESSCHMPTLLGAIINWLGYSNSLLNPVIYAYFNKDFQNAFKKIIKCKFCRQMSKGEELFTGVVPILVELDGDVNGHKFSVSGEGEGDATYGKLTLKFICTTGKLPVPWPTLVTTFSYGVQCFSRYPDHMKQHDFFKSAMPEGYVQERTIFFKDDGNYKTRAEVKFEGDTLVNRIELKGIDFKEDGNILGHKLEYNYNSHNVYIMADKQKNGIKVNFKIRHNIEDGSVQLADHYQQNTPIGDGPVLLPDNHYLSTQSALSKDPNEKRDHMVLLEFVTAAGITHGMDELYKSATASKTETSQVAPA

[7] = target: transducin in ROS membrane (Xenopus laevis); experiment: cell-based or functional assay
[8] = target: endogenous G proteins in retina rod cells; experiment: cell-based or functional assay

## COc1ccccc1N1CCN(CCN(C(=O)c2ccc(F)cc2)c2ccccn2)CC1 [[methyl-^3H]-MPPF]
[1]; transgenic Xenopus tadpole membranes expressing 5HT1AR-GFP-1D4, 0.05% saponin, saturation binding, read-out: binding affinity KD
  Kd: 6.7 nM
5HT1A receptor [2]
  Kd: 0.35 ± 0.1 nM

## [3H]C([3H])([3H])Oc1ccccc1N1CCN(CCN(C(=O)c2ccc(F)cc2)c2ccccn2)CC1 [[methyl-^3H]-MPPF]
[3]
  difference in dissociation constants KD between transgenic tadpoles and CHO cells: about 17 fold
[1]; FIG. 14, 0.05% saponin, nonspecific binding with 10 μM serotonin
  specific binding to transgenic 5HT1A tadpole membranes: dose-dependent manner

## NO [hydroxylamine]
CHO membranes
  effect on [35S]GTPγS binding: without significant effect
[4]
  reduction of basal [35S]GTPγS binding: ~50%

## NCCc1c[nH]c2ccc(O)cc12 [serotonin, 5-hydroxytryptamine]
5HT1A receptor [5]
  effect on [35S]GTPγS binding: specifically stimulated
5HT1A receptor [6]; tadpole membranes pretreated with 10 mM hydroxylamine
  stimulation of [35S]GTPγS binding: about 50%

## O=C(CCCN1CCC2(CC1)C(=O)NCN2c1ccccc1)c1ccc(F)cc1 [spiperone]
5HT1A receptor [5]
  effect on [35S]GTPγS binding: significantly block
5HT1A receptor [6]; transgenic tadpole membranes
  effect on [35S]GTPγS binding: significantly block

## Xenopus rhodopsin (endogenous, in tadpole eye extracts) (from UniProt P29403 1-354) (receptor)
[7]
  decrease in basal [^35S]GTPγS binding to tadpole membranes after treatment with 10 mM hydroxylamine: 50%

## h5HT1AR-GFP-1D4 fusion protein (from UniProt P08908 1-422) (receptor)
[8]
  [^35S]GTPγS binding to transgenic tadpole membranes, stimulated by the agonist serotonin: 50%
